The subject of this experiment is CFTR-Y122X. Put plainly: CFTR-Y122X assay (dual reporter isogenic Hek293 cell lines, Renilla luminescence readthrough). In kind it is cell-based. As to conditions: Homo sapiens; for Emax at 25 µM: measured at 25 μM compound concentration (footnote a), read-out: Amax [%]: % nonsense mutation suppression relative to paromomycin reference activity. The source says:
Activity of compounds of the present invention was examined in recombinant, dual reporter isogenic Hek293 cell lines (“CFTR-Y122X assay”). The engineered reporter constructs contained the 18 bp sequence stretch corresponding to a common Y122X PTC mutation in CFTR class I mutant patients (see Sermet-Gaudelus, BMC Medicine, 2007, 5(5)). Instead of a tyrosine (Y) in position 122 of the CFTR protein a TGA stop codon interrupts the open reading frame (Y122X) of the corresponding mRNA. This TGA stop codon triplet (followed by the pyrimidine base cytosine) is permissive to aminoglycoside mediated translational readthrough which served as positive control for high throughput screening. A corresponding TAA stop codon variant and a wildtype non mutated construct was used for confirmation and counter screening. The CFTR sequence was sandwiched between an eGFP reporter, and a triple myc tag sequence fused to a full length Renilla reporter. All sequences, including an intron containing one positioned pre-eGFP (b-globin intron) were cloned in frame. The corresponding expression constructs were stably expressed in the isogenic HEK-R4 cell host (Invitrogen Incorp.) and selected by blasticidin resistance. The isogenic integration of the construct minimizes gene dose effects and improves assay reproducibility. Stably integrated single cell derived clones were selected and characterized for aminoglycoside mediated readthrough. […] Readthrough of Y122X accumulates an intracellular localized fusion protein approximately 65.5 kDa in size as controlled by western blot analysis and immunofluorescence using an anti-renilla antibody. The eGFP reporter pre-PTC mutation serves as visual control for genetic stability of the screening clones and minimizes protein degradation of small fusion protein amounts. In the assay, compound concentration was 10 μM. In miniaturized 1536 well format 2000 cells were dispensed in 4 μl/well and incubated for 24 h at 37° C., 5% CO2. 40 nl compounds were placed on the cells with control wells containing 1 ul Paramomycin and 14.4 mM final concentration. Compounds were incubated for 24 h. Renilla Glo substrate (2.5 ul) was added and plates were centrifuged and processed for luminescence measurement using various readers. Activity calculation was done using the equation: A1 (%)=100*(S−NC)/(AC−NC) where AC, NC and S correspond to active controls (injection of Stimulation buffer=100% stimulation), neutral controls (buffer injection which Iloprost EC10) and screening samples (S). NC corresponds to 0% activity whereas AC is 100% activity (14 mM paromomycin). False positive artefacts were removed in confirmation and validation screening using the same assay format followed by counterscreening using the respective wildtype construct (w/o PTC mutation) cell model. Compounds were tested up to 100 μM compound concentration.

The mark [1] stands for this setting: HEK293, nonsense mutation suppression, 100% = 14 mM paromomycin, 24 h incubation, tested up to 100 μM, read-out: Amax [%].
The mark [2] stands for this setting: HEK293, nonsense mutation suppression, 24 h incubation.
Where [3] appears, read: HEK293, at the above dose ranges (up to 100 μM), read-out: suppression, % of paromomycin reference activity.

Each structure is given as a SMILES string. Read-outs that look alike come from different tables or passages of the source.

In the case of `NC[C@@H]1O[C@H](O[C@H]2[C@@H](O)[C@H](O[C@@H]3[C@@H](O)[C@H](N)C[C@H](N)[C@H]3O[C@H]3O[C@H](CO)[C@@H](O)[C@H](O)[C@H]3N)O[C@@H]2CO)[C@H](N)[C@@H](O)[C@@H]1O` [paromomycin, reference compound], for the setting “HEK293, clone pursued for HTS assay development, read-out: EC50 (readthrough response of the selected clone)”, the concentration for a half-maximal effect (EC50) is 1500 µM.

Regarding `COCCCc1nc2c(c(=O)c3ccccc3n2C)c(=O)n1-c1ccccc1` [Example 1.13, 2-(3-methoxypropyl)-10-methyl-3-phenylpyrimido[4,5-b]quinoline-4,5(3H,10H)-dione], under setting [1], the Emax is 13%. For `COC1CC(c2nc3c(c(=O)c4ccccc4n3C)c(=O)n2-c2ccccc2)C1` (stereo not drawn) [Example 1.8, 2-(3-methoxycyclobutyl)-10-methyl-3-phenylpyrimido[4,5-b]quinoline-4,5(3H,10H)-dione], under setting [1], the Emax came out at 18%. This compound yielded a concentration at half-maximal activity (AC50) under setting [2] of 11.8 µM. Turning to `Cn1c2ccccc2c(=O)c2c(=O)n(-c3ccccc3)c(C3CCC3)nc21` [Example 1.1, 2-cyclobutyl-10-methyl-3-phenylpyrimido[4,5-b]quinoline-4,5(3H,10H)-dione], the Emax (HEK293, 24 h, read-out: Amax [%]) stood at 258%. Also, the activity under setting [2] was half-maximal at 1.3 µM (AC50). With `CC(C)c1nc2c(c(=O)c3cc(Cl)ccc3n2C)c(=O)n1C1CCCC1` [Example 2.11, 7-chloro-3-cyclopentyl-2-isopropyl-10-methylpyrimido[4,5-b]quinoline-4,5(3H,10H)-dione], the Emax under setting [1] is 192%. For the same compound, the activity under setting [2] was half-maximal at 10.7 µM (AC50). For the compound `CCCn1c2ccccc2c(=O)c2c(=O)n(-c3ccccc3)c(C(C)C)nc21` [Example 1.44, 2-isopropyl-3-phenyl-10-propylpyrimido[4,5-b]quinoline-4,5(3H,10H)-dione], under setting [1], the Emax came out at 118%. This compound also had a concentration at half-maximal activity (AC50) under setting [2] of 15.2 µM. For `COc1ccc(-c2nc3c(c(=O)c4ccccc4n3C)c(=O)n2C2CCCCC2)cc1` [Example 2.27, 3-cyclohexyl-2-(4-methoxyphenyl)-10-methylpyrimido[4,5-b]quinoline-4,5(3H,10H)-dione], where the note is “HEK293”, the Emax at 25 µM was found to be 97%. Regarding `CCC(CC)c1nc2c(c(=O)c3ccccc3n2C)c(=O)n1-c1ccccc1` [Example 1.9, 10-methyl-2-(pentan-3-yl)-3-phenylpyrimido[4,5-b]quinoline-4,5(3H,10H)-dione], the Emax under setting [1] was found to be 200%. The compound also returned a concentration at half-maximal activity (AC50) under setting [2] of 11.7 µM. For the compound `CCCCCCCc1nc2c(c(=O)c3ccccc3n2C)c(=O)n1-c1ccccc1` [Example 1.48, 2-heptyl-10-methyl-3-phenylpyrimido[4,5-b]quinoline-4,5(3H,10H)-dione], the Emax under setting [1] was 235%. The same compound displayed an AC50 under setting [2] of 11.7 µM. On to `CC(C)c1nc2c(c(=O)c3cc(F)ccc3n2C)c(=O)n1-c1ccccc1` [Example 1.23, 7-fluoro-2-isopropyl-10-methyl-3-phenylpyrimido[4,5-b]quinoline-4,5(3H,10H)-dione], for which, under setting [1], the Emax is 139%. Besides, the AC50 under setting [2] turned out to be 13.4 µM. Turning to `Cn1c2ccccc2c(=O)c2c(=O)n(C3CCCC3)c(-c3ccc(C(C)(C)C)cc3)nc21` [2-(4-(tert-butyl)phenyl)-3-cyclopentyl-10-methylpyrimido[4,5-b]quinoline-4,5(3H,10H)-dione], under setting [3], the Emax is less than 5%.

Take `Cn1c2ccccc2c(=O)c2c(=O)n(C3CCCCCC3)c(-c3cccs3)nc21` [Example 2.22, 3-cycloheptyl-10-methyl-2-(thiophen-2-yl)pyrimido[4,5-b]quinoline-4,5(3H,10H)-dione]: under setting [1], the Emax was found to be 197%. Half-maximal activity under setting [2] (AC50) was put at 11 µM. Turning to `Cn1c2ccccc2c(=O)c2c(=O)n(C3CCCC3)c(C(C)(C)C)nc21` [Example 2.6, 2-(tert-butyl)-3-cyclopentyl-10-methylpyrimido[4,5-b]quinoline-4,5(3H,10H)-dione], for the setting “HEK293”, the Emax at 25 µM is 127%.

As for `CC(C)c1nc2c(c(=O)c3ccccc3n2CCO)c(=O)n1-c1ccccc1` [Example 1.42, 10-(2-hydroxyethyl)-2-isopropyl-3-phenylpyrimido[4,5-b]quinoline-4,5(3H,10H)-dione], the Emax under setting [1] was determined as 117%. The same compound registered an AC50 under setting [2] of 15.7 µM. As for `Cn1c2ccccc2c(=O)c2c(=O)n(C3CCCCC3)c(-c3ccc(Cl)cc3Cl)nc21` [3-cyclohexyl-2-(2,4-dichlorophenyl)-10-methylpyrimido[4,5-b]quinoline-4,5(3H,10H)-dione], the Emax under setting [3] was less than 5%. With `CC(C)c1nc2c(c(=O)c3cccc(Cl)c3n2C)c(=O)n1C1CCCC1` [Example 2.51, 9-chloro-3-cyclopentyl-2-isopropyl-10-methylpyrimido[4,5-b]quinoline-4,5(3H,10H)-dione], where the note is “HEK293”, the Emax at 25 µM came to 6%. Consider `CC(C)c1nc2c(c(=O)c3ccccc3n2C)c(=O)n1-c1ccccc1Cl` [Example 1.16, 3-(2-chlorophenyl)-2-isopropyl-10-methylpyrimido[4,5-b]quinoline-4,5(3H,10H)-dione], for which the Emax under setting [1] came out at 200%. The activity under setting [2] was half-maximal at 9.3 µM (AC50). Consider `CCCCCCc1nc2c(c(=O)c3ccccc3n2C)c(=O)n1-c1ccccc1` [Example 1.47, 2-hexyl-10-methyl-3-phenylpyrimido[4,5-b]quinoline-4,5(3H,10H)-dione], for which the Emax under setting [1] came out at 210%. This compound displayed a concentration at half-maximal activity (AC50) under setting [2] of 11.3 µM.

As to `CN(C)c1nc2[nH]c3ccccc3c(=O)c2c(=O)n1-c1ccccc1` [Example 3.2, 2-(dimethylamino)-3-phenylpyrimido[4,5-b]quinoline-4,5(3H,10H)-dione], under setting [1], the Emax was determined as 294%. Under setting [2], this compound returned a half-maximal activity concentration (AC50) of 11.6 µM. For `CC(C)c1nc2c(c(=O)c3ccccc3n2C)c(=O)n1-c1cccc(Cl)c1` [Example 1.21, 3-(3-chlorophenyl)-2-isopropyl-10-methylpyrimido[4,5-b]quinoline-4,5(3H,10H)-dione], the Emax under setting [1] amounted to 167%. The compound further had a concentration at half-maximal activity (AC50) under setting [2] of 10.2 µM. On the same counts, the results for `CC(C)c1nc2c(c(=O)c3ccccc3n2C)c(=O)n1N1CCCCC1` [Example 2.8, 2-isopropyl-10-methyl-3-(piperidin-1-yl)pyrimido[4,5-b]quinoline-4,5(3H,10H)-dione] are 264% and 10.6 µM. On the same counts, the results for `Cn1c2ccccc2c(=O)c2c(=O)n(C3CCCCC3)c(-c3cccc(Br)c3)nc21` [Example 2.30, 2-(3-bromophenyl)-3-cyclohexyl-10-methylpyrimido[4,5-b]quinoline-4,5(3H,10H)-dione] are 71% and 22.2 µM.

Regarding `COc1cccc2c(=O)c3c(=O)n(C4CCCC4)c(C(C)C)nc3n(C)c12` [Example 2.9, 3-cyclopentyl-2-isopropyl-9-methoxy-10-methylpyrimido[4,5-b]quinoline-4,5(3H,10H)-dione], under setting [1], the Emax came to 73%. This compound also returned a concentration at half-maximal activity (AC50) under setting [2] of 18.4 µM. Regarding `CC(C)c1nc2c(c(=O)c3cc(C(F)(F)F)ccc3n2C)c(=O)n1-c1ccccc1` [2-isopropyl-10-methyl-3-phenyl-7-(trifluoromethyl)pyrimido[4,5-b]quinoline-4,5(3H,10H)-dione], the Emax under setting [3] is less than 5%.

As for `CC(C)c1nc2c(c(=O)c3cc(C#N)ccc3n2C)c(=O)n1C1CCCC1` [Example 2.14, 3-cyclopentyl-2-isopropyl-10-methyl-4,5-dioxo-3,4,5,10-tetrahydropyrimido[4,5-b]quinoline-7-carbonitrile], the Emax under setting [1] worked out at 9%. Under setting [2], this compound showed a half-maximal activity concentration (AC50) of 6.6 µM. On to `CC(C)c1nc2c(c(=O)c3cccc4c3n2CC4)c(=O)n1-c1ccccc1` [Example 1.27, 9-isopropyl-8-phenyl-1H-pyrimido[4,5-b]pyrrolo[3,2,1-ij]quinoline-6,7(2H,8H)-dione], for which, under setting [1], the Emax is 271%. The compound further yielded an AC50 under setting [2] of 6.8 µM. As for `Cn1c2ccccc2c(=O)c2c(=O)n(C3CCCC3)c(-c3cccs3)nc21` [Example 2.43, 3-cyclopentyl-10-methyl-2-(thiophen-2-yl)pyrimido[4,5-b]quinoline-4,5(3H,10H)-dione], the Emax under setting [1] was determined as 17%. This compound also displayed a concentration at half-maximal activity (AC50) under setting [2] of 14.7 µM.

Turning to `CC(C)c1nc2c(c(=O)c3ccccc3n2C)c(=O)n1-c1c(Cl)cccc1Cl` [Example 1.17, 3-(2,6-dichlorophenyl)-2-isopropyl-10-methylpyrimido[4,5-b]quinoline-4,5(3H,10H)-dione], the Emax under setting [1] came out at 230%. Under setting [2], this compound had a concentration at half-maximal activity (AC50) of 8.8 µM.
